PubChem BioAssay (NCI)
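Following 48 hours of exposure in 96-well plates, responses at five concentrations were used to interpolate endpoints linearly. GI50 = concentration required for 50% inhibition of growth. At the TGI there is no net growth.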

How the values were obtained:
Experiment in all cases: NCI tumour cell line growth inhibition, 48 h
786-0 renal = tested on: 786-0 renal
A498 renal = tested on: A498 renal
A549 NSCLC = tested on: A549 NSCLC
ACHN renal = tested on: ACHN renal
BT-549 breast = tested on: BT-549 breast
CAKI-1 renal = tested on: CAKI-1 renal
CCRF-CEM leukemia = tested on: CCRF-CEM leukemia
COLO 205 colon = tested on: COLO 205 colon
DLD-1 colon = tested on: DLD-1 colon
DMS 273 small cell lung = tested on: DMS 273 small cell lung
DU-145 prostate = tested on: DU-145 prostate
EKVX NSCLC = tested on: EKVX NSCLC
HCC-2998 colon = tested on: HCC-2998 colon
HCT-116 colon = tested on: HCT-116 colon
HCT-15 colon = tested on: HCT-15 colon
HL-60(TB) leukemia = tested on: HL-60(TB) leukemia
HOP-18 NSCLC = tested on: HOP-18 NSCLC
HOP-62 NSCLC = tested on: HOP-62 NSCLC
HOP-92 NSCLC = tested on: HOP-92 NSCLC
HS 578T breast = tested on: HS 578T breast
HT29 colon = tested on: HT29 colon
IGROV1 ovarian = tested on: IGROV1 ovarian
K-562 leukemia = tested on: K-562 leukemia
KM12 colon = tested on: KM12 colon
KM20L2 colon = tested on: KM20L2 colon
LOX IMVI melanoma = tested on: LOX IMVI melanoma
M14 melanoma = tested on: M14 melanoma
M19-MEL melanoma = tested on: M19-MEL melanoma
MALME-3M melanoma = tested on: MALME-3M melanoma
MCF7 breast = tested on: MCF7 breast
MDA-MB-231 breast = tested on: MDA-MB-231 breast
MDA-MB-435 = tested on: MDA-MB-435
MDA-N = tested on: MDA-N
MOLT-4 leukemia = tested on: MOLT-4 leukemia
NCI-H226 lung = tested on: NCI-H226 lung
NCI-H23 lung = tested on: NCI-H23 lung
NCI-H460 lung = tested on: NCI-H460 lung
NCI-H522 lung = tested on: NCI-H522 lung
NCI/ADR-RES ovarian = tested on: NCI/ADR-RES ovarian
OVCAR-3 ovarian = tested on: OVCAR-3 ovarian
OVCAR-4 ovarian = tested on: OVCAR-4 ovarian
OVCAR-5 ovarian = tested on: OVCAR-5 ovarian
OVCAR-8 ovarian = tested on: OVCAR-8 ovarian
P388 leukemia = tested on: P388 leukemia
P388/ADR leukemia = tested on: P388/ADR leukemia
PC-3 prostate = tested on: PC-3 prostate
RPMI-8226 leukemia = tested on: RPMI-8226 leukemia
RXF 393 renal = tested on: RXF 393 renal
SF-268 CNS = tested on: SF-268 CNS
SF-295 CNS = tested on: SF-295 CNS
SF-539 CNS = tested on: SF-539 CNS
SK-MEL-2 melanoma = tested on: SK-MEL-2 melanoma
SK-MEL-28 melanoma = tested on: SK-MEL-28 melanoma
SK-MEL-5 melanoma = tested on: SK-MEL-5 melanoma
SK-OV-3 ovarian = tested on: SK-OV-3 ovarian
SN12C renal = tested on: SN12C renal
SN12K1 renal = tested on: SN12K1 renal
SNB-19 CNS = tested on: SNB-19 CNS
SNB-75 CNS = tested on: SNB-75 CNS
SNB-78 CNS = tested on: SNB-78 CNS
SR leukemia = tested on: SR leukemia
SW-620 colon = tested on: SW-620 colon
T-47D breast = tested on: T-47D breast
TK-10 renal = tested on: TK-10 renal
U251 CNS = tested on: U251 CNS
UACC-257 melanoma = tested on: UACC-257 melanoma
UACC-62 melanoma = tested on: UACC-62 melanoma
UO-31 renal = tested on: UO-31 renal
XF 498 CNS = tested on: XF 498 CNS

## COc1cc([C@@H]2c3cc4c(cc3[C@@H](OC3OC5CO[C@@H](c6cccs6)OC5C(O)C3O)[C@H]3COC(=O)[C@H]23)OCO4)cc(OC)c1O (stereo not given in full)
786-0 renal
  TGI: 1.19 µM
A498 renal
  TGI: 3.51 µM
A549 NSCLC
  TGI: 4.17 µM
ACHN renal
  TGI: 2.12 µM
BT-549 breast
  TGI: 2.53 µM
CAKI-1 renal
  TGI: 2 µM
CCRF-CEM leukemia
  TGI: 3.89 µM
COLO 205 colon
  TGI: 5.06 µM
DLD-1 colon
  TGI: 11.3 µM
DMS 273 small cell lung
  TGI: 3.03 µM
DU-145 prostate
  TGI: 2.12 µM
EKVX NSCLC
  TGI: 4.33 µM
HCC-2998 colon
  TGI: 3.47 µM
HCT-116 colon
  TGI: 10.7 µM
HCT-15 colon
  TGI: 11.3 µM
HL-60(TB) leukemia
  TGI: 1.35 µM
HOP-18 NSCLC
  TGI: 14.2 µM
HOP-62 NSCLC
  TGI: 0.866 µM
HOP-92 NSCLC
  TGI: 1.76 µM
HS 578T breast
  TGI: 4.71 µM
HT29 colon
  TGI: 11.7 µM
IGROV1 ovarian
  TGI: 13.3 µM
K-562 leukemia
  TGI: 17.2 µM
KM12 colon
  TGI: 5.06 µM
KM20L2 colon
  TGI: 14.6 µM
LOX IMVI melanoma
  TGI: 4.4 µM
M14 melanoma
  TGI: 3.71 µM
M19-MEL melanoma
  TGI: 12.4 µM
MALME-3M melanoma
  TGI: 4.29 µM
MCF7 breast
  TGI: 15.6 µM
MDA-MB-231 breast
  TGI: 3.81 µM
MDA-MB-435
  TGI: 10.7 µM
MDA-N
  TGI: 10.4 µM
MOLT-4 leukemia
  GI50: 0.0161 µM
  TGI: 0.473 µM
NCI-H226 lung
  TGI: 3.05 µM
NCI-H23 lung
  TGI: 4.44 µM
NCI-H460 lung
  TGI: 2.59 µM
NCI-H522 lung
  TGI: 4.16 µM
NCI/ADR-RES ovarian
  TGI: 25 µM
OVCAR-3 ovarian
  TGI: 6.89 µM
OVCAR-4 ovarian
  TGI: 16.7 µM
OVCAR-5 ovarian
  TGI: 11.7 µM
OVCAR-8 ovarian
  TGI: 3.5 µM
P388 leukemia
  TGI: 1.93 µM
P388/ADR leukemia
  TGI: 14.3 µM
PC-3 prostate
  TGI: 21.9 µM
RPMI-8226 leukemia
  TGI: 3.35 µM
RXF 393 renal
  TGI: 3.38 µM
SF-268 CNS
  TGI: 7.24 µM
SF-295 CNS
  TGI: 1.2 µM
SF-539 CNS
  TGI: 2.2 µM
SK-MEL-2 melanoma
  TGI: 4.37 µM
SK-MEL-28 melanoma
  TGI: 12.4 µM
SK-MEL-5 melanoma
  TGI: 3.31 µM
SK-OV-3 ovarian
  TGI: 1.93 µM
SN12C renal
  TGI: 2.33 µM
SN12K1 renal
  TGI: 1.84 µM
SNB-19 CNS
  TGI: 9.24 µM
SNB-75 CNS
  TGI: 4 µM
SNB-78 CNS
  TGI: 10.4 µM
SR leukemia
  TGI: 3.28 µM
SW-620 colon
  TGI: 9.5 µM
T-47D breast
  TGI: 4.21 µM
TK-10 renal
  TGI: 6.89 µM
U251 CNS
  TGI: 2.47 µM
UACC-257 melanoma
  TGI: 12.3 µM
UACC-62 melanoma
  TGI: 2.71 µM
UO-31 renal
  TGI: 12.1 µM
XF 498 CNS
  TGI: 3.73 µM
